# Columns and labels:
# HT29 = assay: SRB colorimetric cytotoxicity assay, HT29; assay type: cell-based; conditions: Homo sapiens, HT-29, 72 h, read-out: GI50 (M) HT29
# Text: (§1) The aim of this assay is to evaluate the in vitro cytostatic (ability to delay or arrest tumor cell growth) or cytotoxic (ability to kill tumor cells) activity of the samples being tested.
# (§2) A colorimetric assay, using sulforhodamine B (SRB) reaction has been adapted to provide a quantitative measurement of cell growth and viability (using the technique developed by Skehan et al., J. Natl. Cancer Inst. 1990 and following the protocol detailed in V. Vichai and K. Kirtikara (2006) Nature Protoc. 1, 1112-1116.)
# (§3) This form of assay employs 96-well cell culture microplates. All the cell lines used in this study were obtained from the American Type Culture Collection (ATCC), unless otherwise indicated, and derive from different types of human cancer.
# (§4) Cells were maintained in Dulbecco's Modified Eagle Medium (DMEM) (for A549, HT-29 and MDA-MB-231) or RPMI (for PSN-1) supplemented with 10% Fetal Bovine Serum (FBS), 2 mM L-glutamine, 100 U/mL penicillin and 100 U/mL streptomycin at 37° C., 5% CO2 and 98% humidity. For the experiments, cells were harvested from subconfluent cultures using trypsinization and resuspended in fresh medium before counting and plating.
# (§5) Cells were seeded in 96 well microtiter plates, at 5×10^3 cells per well in aliquots of 150 μL, and allowed to attach to the plate surface for 18 hours (overnight) in drug free medium. After that, one control (untreated) plate of each cell line was fixed (as described below) and used for time zero reference value. Culture plates were then treated with test compounds (50 μL aliquots of 4× concentrated compound stock solutions made in complete culture medium) using ten serial dilutions (concentrations ranging from […]) and triplicate cultures (final concentration of DMSO being 1%). After 72 hours treatment, the antitumor effect was measured by using the SRB methodology: Briefly, cells were washed twice with PBS, fixed for 15 min in 1% glutaraldehyde solution at room temperature, rinsed twice in PBS, and stained in 0.4% SRB solution for 30 min at room temperature. Cells were then rinsed several times with 1% acetic acid solution and air-dried at room temperature. SRB was then extracted in 10 mM trizma base solution and the absorbance measured in an automated spectrophotometric plate reader at 490 nm. Effects on cell growth and survival were estimated by applying the NCI algorithm (Boyd M R and Paull K D. Drug Dev. Res. 1995, 34, 91-104).
# (§6) Using the mean±SD of triplicates, a dose-response curve was automatically generated using nonlinear regression analysis to a 4-parameter logistic curve. Three reference parameters were calculated (NCI algorithm) by automatic interpolation: GI50=compound concentration that produces […] cell growth inhibition, as compared to control cultures.
# PSN-1 = assay: SRB colorimetric cytotoxicity assay, PSN-1; assay type: cell-based; conditions: Homo sapiens, PSN1, 72 h, read-out: GI50 (M) PSN-1
# Text: as §1, §2, §3, §4, §5, §6
# MDA-MB-231 = assay: SRB colorimetric cytotoxicity assay, MDA-MB-231; assay type: cell-based; conditions: Homo sapiens, MDA-MB-231, 72 h, read-out: GI50 (M) MDA-MB-231
# Text: as §1, §2, §3, §4, §5, §6
# [1] = MTD (Maximum Tolerated Dose) determination; conditions: Athymic Nude-Fox1 nu/nu, mouse, in vivo; iv, single dose; female athymic nude mice
# Method: (§7) Female Athymic Nude-Fox1 nu/nu mice (Envigo) were utilized for all experiments. Animals (N=10/cage) were housed in individually ventilated cages (Sealsafe Plus®, Techniplast S.P.A.), on a 12-hour light-dark cycle at 21-23° C. and 40-60% humidity. Mice were allowed free access to irradiated standard rodent diet (Tecklad 2914C) and sterilized water. Animals were acclimated for five days prior to being individually tattoo-identified. Animal protocols were reviewed and approved according to the regional Institutional Animal Care and Use Committees.
# (§8) Mice were randomly allocated into experimental groups and intravenously administered, once for the MTD (Maximum Tolerated Dose) determination or one administration a week during three consecutive weeks, for the MTMD (Maximum Tolerated Multiple Dose) determination study. The animals were administered with white formulation or with compound dissolved in the experimental formulation at different concentrations. The volume administered was always 10 mL/kg. Once administered, animals were monitored for clinical signs of systemic toxicity, changes in body weight and mortality up to 14 days after the administration.
# [2] = MTMD (Maximum Tolerated Multiple Dose) determination; assay type: in vivo; conditions: iv, Q7dx3; female athymic nude mice
# Method: as §7, §8
# H460 xenografts = assay: Comparative Example, in vivo H460 xenograft (PM050489); parameters: species or system mice; conditions: 0.08 mg/kg iv
# Method: H460 cells were maintained in vitro at 37° C. with 5% CO2 in Dulbecco's Modified Eagle's Medium (Sigma-Aldrich, Co). Culture cells were passaged every 3 to 5 days upon reaching confluence. Each animal was subcutaneously implanted (on the right flank using 26G needle and a 1 cc syringe) at 4-6 weeks of age with 5×10^6 H460 cells suspended in 0.05 mL of a solution consisting of 50% Matrigel (Corning Incorporated Life Sciences) and 50% medium without serum or antibiotics.
# Antitumor activity of PM050489 was evaluated in one human tumor model, NSCLC (H460) xenografted in immunodepressed mice. All treatments were intravenously administered at their MTD.
# When tumors reached ca. 150-200 mm^3, tumor bearing animals (N=10/group) were randomly allocated into the following treatment groups: • PM050489 (0.08 mg/kg) • Placebo
# Treatments were intravenously administered once per week for 2 consecutive weeks (days 0 and 7).
# Tumor dimensions and body weights were recorded 3 times per week starting from the first day of treatment (Day 0). Treatments producing >20% lethality and/or 20% net body weight loss were considered toxic. Tumor volume was calculated using the equation (a·b^2)/2, where a and b were the longest and shortest diameters, respectively. Animals were euthanized when their tumors reached ca. 2,000 mm^3 and/or severe necrosis was seen. Median, mean and SD were calculated for tumor volume on each measurement day.
# Antitumor effect was calculated by using ΔT/ΔC (%) and tumor growth delay (TGD). ΔT/ΔC was defined as a percentage of the change in tumor volume for each treated (T) and placebo (C) group. ΔT/ΔC was calculated immediately before the 2nd dose and on the 4th week of the study. TGD was expressed as a percentage by which the treated group volume was delayed and calculated by applying [(Dt−Dc)/Dc]100, where […] were the median times in days for treated and control groups in attaining a specified volume, fixed as 1,000 mm^3.
# Treatment tolerability was assessed by monitoring body weight evolution, clinical signs as well as evidences of local damage in the injection site.
# A549 = assay: SRB colorimetric cytotoxicity assay, A549; assay type: cell-based; conditions: Homo sapiens, A549, 72 h, read-out: GI50 (M) A549
# Text: as §1, §2, §3, §4, §5, §6
structure (smiles),measurement,setting,value
"COC1=CC[C@@H]([C@@H](C)/C=C(C)/C=C\C=C/C(=O)N[C@H](C(=O)N/C=C\C[C@H](C/C=C(\C)Cl)OC(N)=O)C(C)(C)C)OC1=O [PM050489, reference compound]",GI50,HT29,3.91e-11 M
same,GI50,PSN-1,1.9e-10 M
same,GI50,MDA-MB-231,1.37e-10 M
same,MTD at 14 days,[1],0.075 mg/kg
same,MTMD,[2],0.075 mg/kg
same,treatment tolerability,H460 xenografts,prematurely finished because of severe necrosis in the tumor masses and/or decreases in body weight values
same,ΔT/ΔC (%) Day 7,"H460 xenografts; days 0 and 7, Day 7",103.5%
same,TGD (%),"H460 xenografts; tumor growth delay, target volume 1,000 mm^3",40.0%
same,GI50,A549,8.59e-11 M

# From US20250243174A1, “ANTITUMORAL COMPOUNDS” (PHARMA MAR, S.A., priority 2021, published 2025)
